This assay deals with Anti-alpha galactosyl IgG antibody. The experiment in a line: ELISA assay: streptavidin-captured biotin compound, binding of anti-alpha galactosyl IgG antibody. The following applies: geometric mean with standard error in brackets; streptavidin plate, anti-alpha galactosyl IgG 0.5 μg/mL; read-out: Concentration at half maximal binding. The arrangement: species or system human. The procedure:
Compounds containing F (representing a carbohydrate molecule capable of binding to a human anti-alpha-galactosyl antibody) and L (as biotin) were assayed for binding at both ends of the compound using an enzyme-linked immunosorbent assay (ELISA). Streptavidin-coated plates captured biotin to the surface of the plate and the binding of anti-alpha galactosyl antibodies to the alpha-galactosyl moiety was reported by a secondary antibody labelled with HRP (Horse Radish Peroxidase).
Compounds were titrated 1.5 fold from a top dose of 50 nM in phosphate buffered saline (PBS) (Sigma D8537)+0.025% DMSO (Dimethyl Sulphoxide, Sigma D8418). Streptavidin immobilizer 96-well plates (nunc 436014) were coated with 100 μL of compound at room temperature for 2 hours shaking at 500 rpm. Plates were washed with 2×200 μL PBS-T (PBS with 0.05% Tween 20 (Sigma P9416)) and 1×200 μL PBS-T with a 5 minute incubation shaking at room temperature, prior to being blocked for 1 hour at room temperature with 1% Bovine Serum Albumin (BSA, Sigma A2153) in PBS-T. After removing the blocking buffer, 50 μL of Anti-alpha galactosyl IgG antibody (Anti-alpha-galactosyl antibody was purified from human IVIG (Gammagard) by affinity purification using an alpha-galactosyl-HSA (Human Serum Albumin) sepharose column by Rockland Immunochemicals Inc.) at 0.5 μg/mL in PBS-T+1% BSA and incubated shaking at room temperature for 1 hour.
Plates were washed 2×200 μL PBS-T and 3×200 μL PBS-T with a 5 minute incubation, shaking at room temperature before the addition of 50 μL 1:5000 Goat Anti-Human IgG-HRP (horseradish peroxidase) conjugate (Abcam ab97175). The plates were incubated shaking at room temperature for 1 hour before a final wash of 2×200 μL PBS-T and 3×200 μl PBS-T with a 5 minute incubation shaking at room temperature. 100 μL TMB buffer (3,3′,5,5′-tetramethylbenzidine, a chromogenic substrate for horseradish peroxidase) (Pierce 34021) was added to the plate and allowed to develop for 5-10 minutes before the samples were quenched with 50 μL 2M sulfuric acid (Sigma 258105). The absorbance was read at 450 nm on an Envision plate reader (Perkin Elmer). Results from wells (duplicate) were averaged and the 50% binding affinity calculated.
The concentration at which half-maximal binding is achieved is reported as a geometric mean with standard error in brackets. The number of independent experiments is also reported. In order to achieve a signal both ends of the molecule are required to bind (biotin to streptavidin and alpha-galactosyl to anti-alpha galactosyl antibodies) simultaneously.
In general terms: ELISA stands for enzyme-linked immunosorbent assay.

As for `CC(=O)N[C@H]1[C@H](OCCCNC(=O)CCCCC(=O)NCc2cccc(C(=O)NCCNC(=O)CCCC[C@@H]3SC[C@@H]4NC(=O)N[C@@H]43)c2)O[C@H](CO)[C@@H](O[C@@H]2O[C@H](CO)[C@H](O)[C@H](O[C@H]3O[C@H](CO)[C@H](O)[C@H](O)[C@H]3O)[C@H]2O)[C@@H]1O` [Example 13, N^1-(3-(((2R,3R,4R,5S,6R)-3-Acetamido-5-(((2S,3R,4S,5S,6R)-3,5-dihydroxy-6-(hydroxymethyl)-4-(((2R,3R,4S,5R,6R)-3,4,5-trihydroxy-6-(hydroxymethyl)tetrahydro-2H-pyran-2-yl)oxy)tetrahydro-2H-pyran-2-yl)oxy)-4-hydroxy-6-(hydroxymethyl)tetrahydro-2H-pyran-2-yl)oxy)propyl)-N6-(3-((2-(5-((3aS,4S,6aR)-2-oxohexahydro-1H-thieno[3,4-d]imidazol-4-yl)pentanamido)ethyl)carbamoyl)benzyl)adipamide], the EC50 turned out to be 37.3 nM.

On to `CC(=O)N[C@H]1[C@H](OCCCNC(=O)COc2cc(-c3cccc(C(=O)NCCNC(=O)CCCC[C@@H]4SC[C@@H]5NC(=O)N[C@@H]54)c3)cc(OCC(=O)NCCCO[C@@H]3O[C@H](CO)[C@@H](O[C@@H]4O[C@H](CO)[C@H](O)[C@H](O[C@H]5O[C@H](CO)[C@H](O)[C@H](O)[C@H]5O)[C@H]4O)[C@H](O)[C@H]3NC(C)=O)c2OCC(=O)NCCCO[C@@H]2O[C@H](CO)[C@@H](O[C@@H]3O[C@H](CO)[C@H](O)[C@H](O[C@H]4O[C@H](CO)[C@H](O)[C@H](O)[C@H]4O)[C@H]3O)[C@H](O)[C@H]2NC(C)=O)O[C@H](CO)[C@@H](O[C@@H]2O[C@H](CO)[C@H](O)[C@H](O[C@H]3O[C@H](CO)[C@H](O)[C@H](O)[C@H]3O)[C@H]2O)[C@@H]1O` [Example 55], for which the EC50 was determined as 27.4 nM. `CC(=O)NC1C(OCCCNC(=O)CCOCCOCCOCCOCCNC(=O)COc2ccc(-c3cc(OCC(=O)NCCOCCOCCOCCOCCC(=O)NCCCOC4OC(CO)C(OC5OC(CO)C(O)C(OC6OC(CO)C(O)C(O)C6O)C5O)C(O)C4NC(C)=O)cc(C(=O)NCCNC(=O)CCCCC4SCC5NC(=O)NC54)c3)cc2)OC(CO)C(OC2OC(CO)C(O)C(OC3OC(CO)C(O)C(O)C3O)C2O)C1O` (stereo not shown) [Example 20]: the EC50 was 14.8 nM.

As for `CC(=O)N[C@H]1[C@H](OCCCNC(=O)c2cccc(OCC(=O)NCCNC(=O)CCCC[C@@H]3SC[C@@H]4NC(=O)N[C@@H]43)c2)O[C@H](CO)[C@@H](O[C@@H]2O[C@H](CO)[C@H](O)[C@H](O[C@H]3O[C@H](CO)[C@H](O)[C@H](O)[C@H]3O)[C@H]2O)[C@@H]1O` [Example 4, N-(3-(((2R,3R,4R,5S,6R)-3-Acetamido-5-(((2S,3R,4S,5S,6R)-3,5-dihydroxy-6-(hydroxymethyl)-4-(((2R,3R,4S,5R,6R)-3,4,5-trihydroxy-6-(hydroxymethyl)tetrahydro-2H-pyran-2-yl)oxy)tetrahydro-2H-pyran-2-yl)oxy)-4-hydroxy-6-(hydroxymethyl)tetrahydro-2H-pyran-2-yl)oxy)propyl)-3-(2-oxo-2-((2-(5-((3aS,4S,6aR)-2-oxohexahydro-1H-thieno[3,4-d]imidazol-4-yl)pentanamido)ethyl)amino)ethoxy)benzamide], the EC50 is 13.1 nM. In the case of `CC(=O)NC1C(OCCCNC(=O)CCOCCOCCOCCOCCNC(=O)COc2cc(OCC(=O)NCCOCCOCCOCCOCCC(=O)NCCCOC3OC(CO)C(OC4OC(CO)C(O)C(OC5OC(CO)C(O)C(O)C5O)C4O)C(O)C3NC(C)=O)cc(-c3cc(C(=O)NCCNC(=O)CCCCC4SCC5NC(=O)NC54)c(OCC(=O)NCCOCCOCCOCCOCCC(=O)NCCCOC4OC(CO)C(OC5OC(CO)C(O)C(OC6OC(CO)C(O)C(O)C6O)C5O)C(O)C4NC(C)=O)cc3OCC(=O)NCCOCCOCCOCCOCCC(=O)NCCCOC3OC(CO)C(OC4OC(CO)C(O)C(OC5OC(CO)C(O)C(O)C5O)C4O)C(O)C3NC(C)=O)c2)OC(CO)C(OC2OC(CO)C(O)C(OC3OC(CO)C(O)C(O)C3O)C2O)C1O` (stereo not shown) [Example 51], the EC50 stood at 19.7 nM.

On to `CC(=O)NC1C(OCCCNC(=O)CCCNC(=O)CCOCCOCCOCCOCCNC(=O)COc2cc(OCC(=O)NCCOCCOCCOCCOCCC(=O)NCCCC(=O)NCCCOC3OC(CO)C(OC4OC(CO)C(O)C(OC5OC(CO)C(O)C(O)C5O)C4O)C(O)C3NC(C)=O)cc(-c3cc(OCC(=O)NCCOCCOCCOCCOCCC(=O)NCCCC(=O)NCCCOC4OC(CO)C(OC5OC(CO)C(O)C(OC6OC(CO)C(O)C(O)C6O)C5O)C(O)C4NC(C)=O)cc(C(=O)NCCNC(=O)CCCCC4SCC5NC(=O)NC54)c3)c2)OC(CO)C(OC2OC(CO)C(O)C(OC3OC(CO)C(O)C(O)C3O)C2O)C1O` (stereo not shown) [Example 59], for which the EC50 came out at 21.3 nM. For `CC(=O)NC1C(OCCCNC(=O)CCOCCOCCOCCOCCNC(=O)COc2cc(OCC(=O)NCCOCCOCCOCCOCCC(=O)NCCCOC3OC(CO)C(OC4OC(CO)C(O)C(OC5OC(CO)C(O)C(O)C5O)C4O)C(O)C3NC(C)=O)cc(-c3cc(OCC(=O)NCCOCCOCCOCCOCCC(=O)NCCCOC4OC(CO)C(OC5OC(CO)C(O)C(OC6OC(CO)C(O)C(O)C6O)C5O)C(O)C4NC(C)=O)cc(C(=O)NCCNC(=O)CCOCCOCCOCCOCCOCCOCCOCCOCCOCCOCCOCCOCCNC(=O)CCCCC4SCC5NC(=O)NC54)c3)c2)OC(CO)C(OC2OC(CO)C(O)C(OC3OC(CO)C(O)C(O)C3O)C2O)C1O` (stereo not shown) [Example 54], the EC50 amounted to 22.8 nM. Next, `CC(=O)NC1C(OCCCNC(=O)CCOCCOCCOCCOCCOCCOCCOCCOCCOCCOCCOCCOCCNC(=O)COc2cc(OCC(=O)NCCOCCOCCOCCOCCOCCOCCOCCOCCOCCOCCOCCOCCC(=O)NCCCOC3OC(CO)C(OC4OC(CO)C(O)C(OC5OC(CO)C(O)C(O)C5O)C4O)C(O)C3NC(C)=O)cc(-c3cc(OCC(=O)NCCOCCOCCOCCOCCOCCOCCOCCOCCOCCOCCOCCOCCC(=O)NCCCOC4OC(CO)C(OC5OC(CO)C(O)C(OC6OC(CO)C(O)C(O)C6O)C5O)C(O)C4NC(C)=O)cc(C(=O)NCCNC(=O)CCOCCOCCOCCOCCOCCOCCOCCOCCOCCOCCOCCOCCNC(=O)CCCCC4SCC5NC(=O)NC54)c3)c2)OC(CO)C(OC2OC(CO)C(O)C(OC3OC(CO)C(O)C(O)C3O)C2O)C1O` (stereo not shown) [Example 57]: 15.4 nM; `CC(=O)NC1C(OCCCNC(=O)CCOCCOCCOCCOCCNC(=O)COc2cccc(C(=O)NCCNC(=O)CCOCCOCCOCCOCCOCCOCCOCCOCCOCCOCCOCCOCCNC(=O)CCCCC3SCC4NC(=O)NC43)c2)OC(CO)C(OC2OC(CO)C(O)C(OC3OC(CO)C(O)C(O)C3O)C2O)C1O` (stereo not shown) [Example 19]: 11.8 nM. Next, `CC(=O)NC1C(OCCCNC(=O)COc2cccc(C(=O)NCCNC(=O)CCOCCOCCOCCOCCOCCOCCOCCOCCOCCOCCOCCOCCNC(=O)CCCCC3SCC4NC(=O)NC43)c2)OC(CO)C(OC2OC(CO)C(O)C(OC3OC(CO)C(O)C(O)C3O)C2O)C1O` (stereo not shown) [Example 3]: 15 nM; `CC(=O)N[C@H]1[C@H](OCCCNC(=O)COc2cccc(CNC(=O)CCCCC(=O)NCCNC(=O)CCCC[C@@H]3SC[C@@H]4NC(=O)N[C@@H]43)c2)O[C@H](CO)[C@@H](O[C@@H]2O[C@H](CO)[C@H](O)[C@H](O[C@H]3O[C@H](CO)[C@H](O)[C@H](O)[C@H]3O)[C@H]2O)[C@@H]1O` [Example 12, N^1-(3-(2-((3-(((2R,3R,4R,5S,6R)-3-Acetamido-5-(((2S,3R,4S,5S,6R)-3,5-dihydroxy-6-(hydroxymethyl)-4-(((2R,3R,4S,5R,6R)-3,4,5-trihydroxy-6-(hydroxymethyl)tetrahydro-2H-pyran-2-yl)oxy)tetrahydro-2H-pyran-2-yl)oxy)-4-hydroxy-6-(hydroxymethyl)tetrahydro-2H-pyran-2-yl)oxy)propyl)amino)-2-oxoethoxy)benzyl)-N6-(2-(5-((3aS,4S,6aR)-2-oxohexahydro-1H-thieno[3,4-d]imidazol-4-yl)pentanamido)ethyl)adipamide]: 37.3 nM; `CC(=O)NC1C(OCCCNC(=O)CCOCCOCCOCCOCCNC(=O)COc2cc(OCC(=O)NCCOCCOCCOCCOCCC(=O)NCCCOC3OC(CO)C(OC4OC(CO)C(O)C(OC5OC(CO)C(O)C(O)C5O)C4O)C(O)C3NC(C)=O)cc(-c3cc(OCC(=O)NCCOCCOCCOCCOCCC(=O)NCCCOC4OC(CO)C(OC5OC(CO)C(O)C(OC6OC(CO)C(O)C(O)C6O)C5O)C(O)C4NC(C)=O)cc(C(=O)NCCNC(=O)CCCCC4SCC5NC(=O)NC54)c3)c2)OC(CO)C(OC2OC(CO)C(O)C(OC3OC(CO)C(O)C(O)C3O)C2O)C1O` (stereo not shown) [Example 18]: 6.7 nM.

Regarding `CC(=O)NC1C(OCCCNC(=O)COc2cc(OCC(=O)NCCCOC3OC(CO)C(OC4OC(CO)C(O)C(OC5OC(CO)C(O)C(O)C5O)C4O)C(O)C3NC(C)=O)cc(-c3cc(OCC(=O)NCCCOC4OC(CO)C(OC5OC(CO)C(O)C(OC6OC(CO)C(O)C(O)C6O)C5O)C(O)C4NC(C)=O)cc(C(=O)NCCNC(=O)CCOCCOCCOCCOCCOCCOCCOCCOCCOCCOCCOCCOCCNC(=O)CCCCC4SCC5NC(=O)NC54)c3)c2)OC(CO)C(OC2OC(CO)C(O)C(OC3OC(CO)C(O)C(O)C3O)C2O)C1O` (stereo not shown) [Example 16], the EC50 was 8.4 nM.

The values are drawn from US10953100B2, “Compounds and therapeutic uses thereof” (priority 2015, dated 2021).
